Experimental data published in patent US20040197294A1, “Cosmetic and/or pharmaceutical preparations” (priority 2001, published 2004).
Read-outs that look alike come from different tables or passages of the source.

Key:
pig's epidermis [1] = test: Dermatological compatibility: transepidermal water loss (TEWL), gravimetric; conditions: […] by weight partial glyceride or glycerol ether in 17% by weight Plantapon PS 10, pH 5.5; skin treated 30 minutes at 40° C.; lower = better compatibility
Description: (§1) Dermatological compatibility was evaluated by determining the transepidermal water loss (TEWL) in a pig's epidermis. To this end, defined pieces of skin were treated with the various test solutions for 30 minutes at 40° C. and the TEWL value was gravimetrically determined. The test solutions were mixtures of 17% by weight Plantapon® PS 10 (sodium lauryl ether sulfate and Lauryl Glycoside, Cognis Dusseldorf) with 1.5% by weight fatty acid partial glycerides or glycerol ethers (see Table 1) in preservative-containing water (WAS 10% by weight). The pH was adjusted to 5.5 with citric acid.

pig's epidermis [2] = conditions: pH 5.5
Description: as §1

TEWL [%-rel] = [treated/untreated * 100] − 100% (pig's epidermis [1]) [%-rel]	TEWL [%-rel] = [treated/untreated * 100] − 100% (pig's epidermis [2]) [%-rel]	Compound
5.0		CCCCCCCCOCC(O)CO (centres unmarked) [Example 2, Glycerol monocapryl ether (>90)]
	20.5	Lauric acid mono/diglyceride (65:35) [Example 9]
	22.0	Isostearic acid mono/diglyceride (65:35) [Example 7]
10.5		CCCCCCCCCCCC(=O)OCC(O)CO (centres unmarked) [Example 10, Lauric acid monoglyceride (>90)]
18.5		Isostearic acid monoglyceride (>90) [Example 8]
